Source: ChEMBL document CHEMBL3400086, “Thieno[2,3-b]pyridines as negative allosteric modulators of metabotropic GluR5 receptors: Lead optimization” (Bioorg Med Chem Lett, 2015)

Legend:
[1] = system: Liver microsome; experiment: Intrinsic clearance in Wistar rat liver microsomes measured per gram of tissue at 2.5 uM; type: ADME
[2] = biological target: T1, Metabotropic glutamate receptor 5 (Rattus norvegicus, UniProt P31424); experiment: Displacement of [3H]-M-MPEP from rat cerebrocortical mGluR5 receptor
T1 sequence (P31424 whole entry): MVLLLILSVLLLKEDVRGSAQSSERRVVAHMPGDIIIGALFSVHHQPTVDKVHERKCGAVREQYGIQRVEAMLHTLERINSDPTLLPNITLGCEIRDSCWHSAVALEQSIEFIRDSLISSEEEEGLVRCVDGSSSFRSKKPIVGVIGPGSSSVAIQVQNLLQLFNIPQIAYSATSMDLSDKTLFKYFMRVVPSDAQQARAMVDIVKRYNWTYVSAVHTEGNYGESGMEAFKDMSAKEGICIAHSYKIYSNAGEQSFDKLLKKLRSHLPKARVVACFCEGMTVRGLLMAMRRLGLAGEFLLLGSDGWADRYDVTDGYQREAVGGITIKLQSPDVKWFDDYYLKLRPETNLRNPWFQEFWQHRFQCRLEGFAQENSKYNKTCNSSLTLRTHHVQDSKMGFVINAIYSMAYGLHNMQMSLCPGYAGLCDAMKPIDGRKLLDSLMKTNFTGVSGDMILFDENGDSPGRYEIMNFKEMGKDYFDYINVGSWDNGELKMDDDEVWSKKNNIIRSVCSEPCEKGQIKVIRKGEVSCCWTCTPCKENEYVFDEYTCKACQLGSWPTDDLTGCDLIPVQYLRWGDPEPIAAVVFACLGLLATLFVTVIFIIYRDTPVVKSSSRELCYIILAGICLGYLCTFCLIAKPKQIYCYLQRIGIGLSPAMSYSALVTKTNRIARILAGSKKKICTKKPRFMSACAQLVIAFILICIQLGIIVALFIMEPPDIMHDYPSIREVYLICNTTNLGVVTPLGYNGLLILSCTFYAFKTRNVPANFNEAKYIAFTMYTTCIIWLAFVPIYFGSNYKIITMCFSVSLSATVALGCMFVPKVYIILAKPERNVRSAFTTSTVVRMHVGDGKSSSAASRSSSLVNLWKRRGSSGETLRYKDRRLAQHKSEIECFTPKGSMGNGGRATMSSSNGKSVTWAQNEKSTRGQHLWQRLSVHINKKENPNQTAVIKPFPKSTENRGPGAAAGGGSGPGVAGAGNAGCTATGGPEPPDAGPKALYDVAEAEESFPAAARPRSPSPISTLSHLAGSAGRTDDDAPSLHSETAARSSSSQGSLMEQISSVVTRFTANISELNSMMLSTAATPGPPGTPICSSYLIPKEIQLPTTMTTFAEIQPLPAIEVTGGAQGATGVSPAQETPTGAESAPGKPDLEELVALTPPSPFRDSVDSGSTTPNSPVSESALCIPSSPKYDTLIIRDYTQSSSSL

[3] = system: Liver microsome; experiment: Intrinsic clearance in human liver microsomes measured per gram of tissue at 2.5 uM; type: ADME
[4] = biological target: T1, Metabotropic glutamate receptor 5; experiment: Negative allosteric modulation of mGlu5 receptor in primary E17 rat embryo neuron assessed as ca2+ level by fluo-4/AM assay

SMILES	CLH [1]	Ki [2]	CLH [3]	IC50 [4]
N#Cc1cccc(S(=O)(=O)c2sc3ncccc3c2-c2ccc(Cl)cc2)c1	12.8 mL/min/g	4.1 nM	2.4 mL/min/g	30 nM
Cc1ccc(-c2c(S(=O)(=O)c3ccc(Cl)cc3)sc3ncccc23)cc1	15.7 mL/min/g	21 nM	3.9 mL/min/g	111 nM
O=S(=O)(c1ccc(Cl)cc1)c1sc2ncccc2c1-c1ccc(F)cc1	13.6 mL/min/g	22 nM	3.4 mL/min/g	92 nM
Nc1cnc2sc(S(=O)(=O)c3ccc(Cl)cc3)c(-c3ccc(Cl)cc3)c2c1	0.7 mL/min/g	19.1 nM	1.6 mL/min/g	77 nM
CN(C)c1ccnc2sc(S(=O)(=O)c3ccc(Cl)cc3)c(-c3ccc(Cl)cc3)c12	9.5 mL/min/g	26 nM	3.8 mL/min/g	–
N#Cc1cccc(S(=O)(=O)c2sc3ncccc3c2-c2ccccc2Cl)c1	11.2 mL/min/g	3.5 nM	3.2 mL/min/g	–
N#Cc1cc(F)cc(S(=O)(=O)c2sc3ncc(N)cc3c2-c2ccc(Cl)cc2)c1	1 mL/min/g	2.2 nM	1.3 mL/min/g	30 nM
O=S(=O)(c1ccc(Cl)cc1)c1sc2ncccc2c1-c1cccc(Cl)c1	2.8 mL/min/g	37 nM	1.3 mL/min/g	–
O=S(=O)(c1ccccc1)c1sc2ncccc2c1-c1ccc(Cl)cc1	–	96 nM	–	–
N#Cc1cc(F)cc(S(=O)(=O)c2sc3ncc(N)cc3c2-c2ccc(F)cc2)c1	1.2 mL/min/g	2.8 nM	0.8 mL/min/g	6.4 nM
N#Cc1cc(F)cc(S(=O)(=O)c2sc3ncc(N)cc3c2-c2cnccc2Cl)c1	1 mL/min/g	9.3 nM	1.1 mL/min/g	34 nM
N#Cc1cc(F)cc(S(=O)(=O)c2sc3ncc(N)cc3c2-c2ccncc2Cl)c1	0.7 mL/min/g	44 nM	1 mL/min/g	–
N#Cc1cc(F)cc(S(=O)(=O)c2sc3ncccc3c2-c2cccc(F)c2)c1	2.4 mL/min/g	2.2 nM	1.5 mL/min/g	2.4 nM
Nc1cnc2sc(S(=O)(=O)c3ccc(Cl)cc3)c(-c3cccc(F)c3)c2c1	1.8 mL/min/g	37 nM	1.7 mL/min/g	127 nM
N#Cc1cc(F)cc(S(=O)(=O)c2sc3ncc(N)cc3c2-c2cccc(Cl)c2)c1	1.5 mL/min/g	–	0.9 mL/min/g	38 nM
O=S(=O)(c1ccc(Cl)cc1)c1sc2ncccc2c1-c1ccccc1F	4.1 mL/min/g	51 nM	2.4 mL/min/g	135 nM
N#Cc1cccc(S(=O)(=O)c2sc3ncccc3c2-c2cccc(Cl)c2)c1	10.8 mL/min/g	14.3 nM	2.6 mL/min/g	45 nM
O=S(=O)(c1ccc(Cl)cc1Cl)c1sc2ncccc2c1-c1ccc(Cl)cc1	–	105 nM	–	–
O=S(=O)(c1ccc(Cl)cc1)c1sc2nc(F)ccc2c1-c1ccc(Cl)cc1	3.8 mL/min/g	26 nM	0.1 mL/min/g	172 nM
N#Cc1cccc(S(=O)(=O)c2sc3ncc(N)cc3c2-c2cccc(Cl)c2)c1	0.01 mL/min/g	14.3 nM	0.01 mL/min/g	–
O=S(=O)(c1ccc(Cl)cc1)c1sc2nc(O)ccc2c1-c1ccc(Cl)cc1	0.9 mL/min/g	60 nM	0.04 mL/min/g	338 nM
N#Cc1cc(F)cc(S(=O)(=O)c2sc3ncc(N)cc3c2-c2ccccc2F)c1	2.5 mL/min/g	1.5 nM	1.1 mL/min/g	1.6 nM
O=S(=O)(c1cccnc1)c1sc2ncccc2c1-c1ccc(Cl)cc1	–	289 nM	–	–
Cc1ccc(S(=O)(=O)c2sc3ncccc3c2-c2ccc(Cl)cc2)cc1F	–	11.8 nM	–	–

SMILES	CLH [1]	Ki [2]	CLH [3]	IC50 [4]
O=S(=O)(c1cccc(C(F)(F)F)c1)c1sc2ncccc2c1-c1ccc(Cl)cc1	–	54 nM	–	–
Cc1ccc(-c2c(S(=O)(=O)c3cccc(C#N)c3)sc3ncccc23)cc1	17.3 mL/min/g	3 nM	3.3 mL/min/g	–
Nc1ccc2c(-c3ccc(Cl)cc3)c(S(=O)(=O)c3ccc(Cl)cc3)sc2n1	0.5 mL/min/g	83 nM	0.01 mL/min/g	374 nM
Cc1cc(C)cc(S(=O)(=O)c2sc3ncccc3c2-c2ccc(Cl)cc2)c1	–	24 nM	–	–
N#Cc1cc(F)cc(S(=O)(=O)c2sc3ncc(N)cc3c2-c2ccncc2F)c1	0.5 mL/min/g	44 nM	0.3 mL/min/g	44 nM
N#Cc1cccc(S(=O)(=O)c2sc3ncccc3c2-c2ccc(F)cc2)c1	9.6 mL/min/g	4.5 nM	2.1 mL/min/g	–
Cc1cccc(-c2c(S(=O)(=O)c3cccc(C#N)c3)sc3ncccc23)c1	17.7 mL/min/g	14.2 nM	3.3 mL/min/g	44 nM
O=S(=O)(c1ccc(F)cc1)c1sc2ncccc2c1-c1ccc(Cl)cc1	–	15.6 nM	–	–
N#Cc1cc(F)cc(S(=O)(=O)c2sc3nc(F)ccc3c2-c2ccc(F)cc2)c1	2 mL/min/g	2.8 nM	3.5 mL/min/g	14 nM
O=S(=O)(c1cccc(Cl)c1)c1sc2ncccc2c1-c1ccc(Cl)cc1	–	15.9 nM	–	–
Cc1ccc(S(=O)(=O)c2sc3ncccc3c2-c2ccc(Cl)cc2)cc1	–	15.4 nM	–	–
CN(C)c1ccc(S(=O)(=O)c2sc3ncccc3c2-c2ccc(Cl)cc2)cc1	–	52 nM	–	–
N#Cc1cc(F)cc(S(=O)(=O)c2sc3ncc(N)cc3c2-c2cc(F)cc(F)c2)c1	1.04 mL/min/g	2.4 nM	0.8 mL/min/g	6.1 nM
O=S(=O)(c1ccc(Cl)cc1)c1sc2nccc(F)c2c1-c1ccc(Cl)cc1	12.1 mL/min/g	214 nM	3.6 mL/min/g	–
O=S(=O)(c1ccc(Cl)cc1)c1sc2ncccc2c1-c1cnccc1F	10.5 mL/min/g	61 nM	2.6 mL/min/g	–
N#Cc1cc(F)cc(S(=O)(=O)c2sc3ncccc3c2-c2ccoc2)c1	4.3 mL/min/g	13 nM	3.7 mL/min/g	–
N#Cc1ccc(S(=O)(=O)c2sc3ncccc3c2-c2ccc(Cl)cc2)cc1	–	36 nM	–	–
N#Cc1cccc(S(=O)(=O)c2sc3nc(O)ccc3c2-c2ccc(Cl)cc2)c1	1.1 mL/min/g	39 nM	0.4 mL/min/g	46 nM
N#Cc1cc(F)cc(S(=O)(=O)c2sc3nc(Cl)ccc3c2-c2ccc(F)cc2)c1	2.1 mL/min/g	20 nM	0.6 mL/min/g	–
O=S(=O)(c1cc(F)cc(C(F)(F)F)c1)c1sc2ncccc2c1-c1ccc(Cl)cc1	–	41 nM	–	–
N#Cc1cc(F)cc(S(=O)(=O)c2sc3ncccc3c2-c2ccc(Cl)cc2)c1	3.4 mL/min/g	2 nM	1.4 mL/min/g	18 nM
COc1ccc(-c2c(S(=O)(=O)c3cccc(C#N)c3)sc3ncccc23)cc1	13.5 mL/min/g	23 nM	2.7 mL/min/g	–
N#Cc1cc(F)cc(S(=O)(=O)c2sc3nc(F)ccc3c2-c2cccc(F)c2)c1	2.9 mL/min/g	2.5 nM	0.6 mL/min/g	4.9 nM
N#Cc1cccc(S(=O)(=O)c2sc3ncc(N)cc3c2-c2cccc(F)c2)c1	0.01 mL/min/g	4.2 nM	0.01 mL/min/g	–

SMILES	CLH [1]	Ki [2]	CLH [3]	IC50 [4]
O=C(Nc1cccc(Cl)c1)O/N=C1\CCCCC1Cc1cccs1 (stereo not given)	–	9.1 nM	–	–
O=S(=O)(c1ccc(Cl)c(Cl)c1)c1sc2ncccc2c1-c1ccc(Cl)cc1	–	10.7 nM	–	–
N#Cc1cccc(S(=O)(=O)c2sc3ncc(N)cc3c2-c2ccc(F)cc2)c1	3.8 mL/min/g	8.8 nM	1.3 mL/min/g	–
O=S(=O)(c1ccc(Cl)cc1)c1sc2ncc(F)cc2c1-c1ccc(Cl)cc1	1.7 mL/min/g	124 nM	0.3 mL/min/g	–
O=S(=O)(c1ccc(Cl)cc1)c1sc2ncccc2c1-c1ccc(F)cc1F	11.1 mL/min/g	27 nM	3.3 mL/min/g	–
Cc1ccc(S(=O)(=O)c2sc3ncccc3c2-c2ccc(Cl)cc2)cc1C	–	3.3 nM	–	–
COc1ccc(S(=O)(=O)c2sc3ncccc3c2-c2ccc(Cl)cc2)cc1F	–	7.9 nM	–	–
COc1ccc(S(=O)(=O)c2sc3ncccc3c2-c2ccc(Cl)cc2)cc1	–	20 nM	–	–
Cc1ccc(S(=O)(=O)c2sc3ncccc3c2-c2ccc(Cl)cc2)cc1Cl	–	6.8 nM	–	–
CC(C)c1ccc(S(=O)(=O)c2sc3ncccc3c2-c2ccc(Cl)cc2)cc1	–	66 nM	–	–
Cc1cccc(S(=O)(=O)c2sc3ncccc3c2-c2ccc(Cl)cc2)c1	–	9.3 nM	–	–
O=S(=O)(c1ccc(Cl)cc1)c1sc2ncccc2c1-c1ccc(Cl)c(Cl)c1	9.7 mL/min/g	31 nM	2.5 mL/min/g	–
N#Cc1cc(F)cc(S(=O)(=O)c2sc3ncc(N)cc3c2-c2c(F)cncc2F)c1	0.8 mL/min/g	19 nM	0.4 mL/min/g	–
O=S(=O)(c1cc(F)cc(F)c1)c1sc2ncccc2c1-c1ccc(Cl)cc1	–	36 nM	–	–
COc1cccc(S(=O)(=O)c2sc3ncccc3c2-c2ccc(Cl)cc2)c1	–	9.5 nM	–	–
O=S(=O)(c1ccc(C(F)(F)F)cc1)c1sc2ncccc2c1-c1ccc(Cl)cc1	–	272 nM	–	–
O=S(=O)(c1cccc(F)c1)c1sc2ncccc2c1-c1ccc(Cl)cc1	–	43 nM	–	–
N#Cc1cccc(S(=O)(=O)c2sc3ncc(N)cc3c2-c2ccccc2F)c1	2.5 mL/min/g	1.8 nM	0.6 mL/min/g	–
Nc1ccnc2sc(S(=O)(=O)c3ccc(Cl)cc3)c(-c3ccc(Cl)cc3)c12	10.1 mL/min/g	14.8 nM	2.9 mL/min/g	–
CS(=O)(=O)Nc1cnc2sc(S(=O)(=O)c3ccc(Cl)cc3)c(-c3ccc(Cl)cc3)c2c1	1.1 mL/min/g	166 nM	0.4 mL/min/g	–
N#Cc1cccc(S(=O)(=O)c2sc3ncccc3c2-c2cccc(F)c2)c1	13.9 mL/min/g	4.8 nM	1.9 mL/min/g	–
COc1ccc2c(-c3ccc(Cl)cc3)c(S(=O)(=O)c3ccc(Cl)cc3)sc2n1	2.6 mL/min/g	652 nM	0.01 mL/min/g	–
N#Cc1cccc(S(=O)(=O)c2sc3ncc(N)cc3c2-c2ccc(Cl)cc2)c1	0.4 mL/min/g	9 nM	1.6 mL/min/g	–
Nc1cnc2sc(S(=O)(=O)c3ccc(Cl)cc3)c(-c3ccccc3F)c2c1	2.8 mL/min/g	58 nM	1.9 mL/min/g	–
